Reference: PMC7822874, “Chemoprotective antimalarials identified through quantitative high-throughput screening of Plasmodium blood and liver stage parasites” (Scientific Reports, 2021)
Read-outs that look alike come from different tables or passages of the source.

Assays:
HepG2-A16-CD81EGFP cells = conditions: averaged response (percent)
[1] = test system: P. falciparum Dd2 (clone B2) asexual blood stage parasites; assay: P. falciparum Dd2 asexual blood stage SYBR Green-I 72 h proliferation assay (qHTS); type: cell-based, Plasmodium falciparum; conditions: averaged P. falciparum asexual blood stage potency, log10 of AC50 in M
[2] = test system: P. berghei-ANKA-GFP-LucCON liver stage parasites in HepG2-A16-CD81EGFP cells; assay: P. berghei liver stage Pb-Luc assay, Method 1 (UCSD, 1536-well); type: cell-based, Plasmodium berghei; conditions: P. berghei liver stage, averaged response (percent); for Average P. berghei 1 µM response (%): the header list (r8) defines it as the 1 µM dose
[3] = HepG2, the header list (r10) describes it as the 1 µM dose

Compound	Average HepG2 3 µM response( %) (HepG2-A16-CD81EGFP cells; HepG2, 3 µM dose)	Average HepG2 3 µM response( %) (HepG2-A16-CD81EGFP cells; [3])	Pf ABS Log AC50 (M) [1]	Average P. berghei 3 µM response( %) [2]	Average P. berghei 1 µM response (%) [2]
C=C(C)COc1ccc(-c2ncnc(C(F)(F)F)c2-c2ccc(OC)cc2)c(O)c1 [MLS001216205]	103%	92%	-5.462 M	105%	107%
COc1ccc(CCN2CCC(Nc3nc4ccccc4n3Cc3ccc(F)cc3)CC2)cc1 [NCGC00016913]	100%	99%	-5.658 M	43%	54%
CCOC(=O)C1=C(C)N=c2s/c(=C/c3ccc(OCC(=O)O)cc3)c(=O)n2C1c1cc(OC)c(OC)c(OC)c1 (centres unmarked) [MLS001178475]	99%	99%	-5.737 M	74%	98%
Cc1ccc(-n2c(C)cc(C(=O)OCC(=O)N(C)C3CCS(=O)(=O)C3)c2C)cc1 (centres unmarked) [MLS000098265]	101%	101%	-5.487 M	106%	136%
Clc1ccc(-c2nnc(N3CCCC3)nn2)cc1 [MLS000038815]	104%	104%	-5.512 M	153%	160%
CCC(CC)c1cc([C@H]2CN3CC[C@H]2C[C@@H]3CNC(C)=O)nc(-c2ccncc2)n1 [NCGC00394634]	106%	107%	-4.814 M	53%	49%
CC(C)C(=O)OCC(=O)[C@@]12O[C@H](C3CCCCC3)O[C@@H]1C[C@H]1[C@@H]3CCC4=CC(=O)C=C[C@]4(C)[C@H]3[C@@H](O)C[C@@]12C [NCGC00167484]	92%	94%	-5.762 M	125%	137%
COc1ccc(C2=C(Nc3ccc(C)cc3)c3ccccc3C2=O)cc1 [MLS000563980]	89%	94%	-5.637 M	25%	81%
COc1ccc(-c2noc(-c3cccn3CC(=O)Nc3ccccc3)n2)cc1F [NCGC00445500]	104%	101%	-5.625 M	183%	170%
CCN1CCN(C(=O)c2ccc3c(c2)N(Cc2ccccc2F)C(=O)c2ccccc2[S+]3[O-])CC1 (centres unmarked) [NCGC00109528]	98%	98%	-6.075 M	103%	106%
O=C(/C=C/c1ccco1)NC(=S)Nc1ccccc1N1CCCC1 [MLS000663784]	105%	105%	-5.575 M	104%	113%
N=c1c2c(n(Cc3ccccc3)c3c1CCC3)CCC2 [MLS000080128]	74%	94%	-5.712 M	16%	14%
OC(CNCCNc1ncccc1C(F)(F)F)Cn1ccc2ccccc21 (centres unmarked) [MLS000833573]	95%	101%	-5.662 M	109%	113%
CN(CC(=O)Nc1cccc(F)c1)C(=O)c1ccc(-c2cccc(C(F)(F)F)c2)o1 [MLS001139679]	100%	103%	-6.362 M	89%	141%
O=C1c2cc(F)ccc2-n2c1nc1ccccc1c2=O [MLS001216278]	94%	94%	-5.937 M	13%	25%
Oc1ccc(-c2nnc(S)n2-c2ccc3c(c2)OCCO3)c(O)c1 [MLS000332001]	95%	101%	-6.012 M	70%	78%
O=c1cc(-c2ccccc2)c2ccc3c(c2o1)CN(Cc1ccccc1)CO3 [NCGC00116340]	100%	102%	-5.575 M	76%	87%
Cc1ccc2[nH]c(C(=O)Nc3ccc(F)cc3)cc2c1 [MLS001183414]	100%	100%	-4.837 M	91%	92%
CN1CCC(NCCC(c2ccc(F)cc2)c2ccc(Cl)cc2)CC1 (centres unmarked) [MLS001215866]	100%	100%	-5.437 M	70%	103%
O=C1NCc2ccccc2CC12CCCN(Cc1ccccc1)C2 (centres unmarked) [NCGC00377595]	104%	103%	-4.980 M	106%	116%
CCOCCCNc1nc2cc(OC)c(OC)cc2c2nc(-c3ccccc3)nn12 [NCGC00112857]	99%	97%	-6.675 M	104%	109%
Cc1cc(Nc2cccc(C(F)(F)F)c2)nc2ccc(NC(=O)c3cncc(Br)c3)cc12 [NCGC00124348]	101%	107%	-5.625 M	38%	76%
Cc1ccc(NC(=O)CCS(=O)(=O)c2cc(Br)cc3c2N(C(=O)C2CC2)CC3)cc1 [NCGC00107230]	102%	99%	-5.625 M	118%	117%
Cc1cc(Oc2c(C(F)(F)F)oc3c(CN4CCC(C)CC4)c(O)ccc3c2=O)cc(C)c1Cl [NCGC00101140]	111%	110%	-6.125 M	71%	85%
COc1cc(Br)c(C(C)NC(=O)c2cccc(Br)c2)cc1OC (centres unmarked) [MLS000325399]	93%	98%	-5.887 M	70%	107%
